{"source": "patent US12514935B2", "about": "“Nanocarrier systems for imaging and delivery of active agents” (Kansas State University Research Foundation, priority 2018, dated 2026)", "key": {"THP-1 cells [1]": {"system": "THP-1 cells", "experiment": "In vitro immunogenicity cytokine release assay (ELISA)", "type": "cell-based, human", "settings": "THP-1, 24 h incubation", "experimental": "The immunogenicity of NKsomes in THP-1 cells were tested for its inflammatory response using a cytokine release assay. In brief, 7.5×10^5 THP-1 cells were seeded in 12-well plate and treated with isolated NKM (100 μg/mL), NKsomes (100 μg/mL), Free DOX (5 μg/mL), DOX@NKsomes (equivalent DOX load) and Bare liposomes (100 μg/mL) for 24 h incubation. Positive (LPS, 3 μg/mL) and negative controls were maintained for assessing pro-inflammatory cytokines in THP-1 cells. The treated cell culture supernatants were collected, centrifuged to remove cell debris, aliquot and stored at −20° C. until needed. Samples were thawed and used for analyzing pro-inflammatory cytokines, IL-1β (0.8 pg/ml), IL-6 (0.4 pg/mL) and TNF-α (0.7 pg/mL) using quantitative enzyme-linked immunosorbent assay KIT (ELISA) (R&D Systems, Inc. Minneapolis, MN) as recommended by the manufacturer. Sample […] was measured at 450 nm with the wavelength correction at 540 nm using Synergy H1 hybrid microplate reader (BioTek Instruments Inc. VT)."}, "NHost": {"system": "NHost", "experiment": "Cell cycle analysis (propidium iodide, FACS)", "type": "cell-based, human", "settings": "DOX 5 μM, 12 h", "experimental": "(§1) The in vitro cytotoxicity of DOX@NKsome and the equivalent Free DOX were investigated against MCF-7 cells and NHost using a cell cycle analysis and an MTT assay. For cell cycle analysis, 1×10^6 cells were treated with 5 μM of Free DOX, equivalent DOX@NKsomes and bare NKsomes (equivalent to DOX-loaded) for 12 h. After incubation, cells were harvested, fixed in 70% ethanol overnight, washed with PBS twice and then followed propidium iodide staining. Further, the samples were analyzed in FACS Calibur for cell cycle analysis."}, "MCF-7 cells [2]": {"system": "MCF-7 cells", "experiment": "Cell cycle analysis (propidium iodide, FACS)", "type": "cell-based, human", "settings": "MCF-7, DOX 5 μM, 12 h", "experimental": "as §1"}, "NHost cells": {"system": "NHost cells", "experiment": "MTT assay", "type": "cell-based, human", "settings": "DOX 0.5-15 μM, 24 h", "experimental": "(§2) For MTT analysis, MCF-7 cells and NHost cells were treated with NKsomes with different DOX concentration along with free DOX and bare NKsomes. In brief, 2×10^4 cells per well in the respective medium were seeded in a 96-well plate and incubated for 24 h. While the cell reaches 80% confluence, the media was replaced with different DOX concentration of free DOX and NKsomes (0.5, 1.5, 3, 5, 10 and 15 uM) and incubated for additional 24 h. Control cells were maintained without DOX treatment. After incubation, MTT dye was added according to the manual instruction and further incubated for 3 h. The insoluble formation crystals were solubilized using DMSO, and the absorbance was read at 590 and 630 nm using microplate reader (BioTek, Synergy H1 Hybrid reader)."}, "MCF-7 cells [3]": {"system": "MCF-7 cells", "experiment": "MTT assay", "type": "cell-based, human", "settings": "MCF-7, DOX 0.5-15 μM, 24 h", "experimental": "as §2"}, "[4]": {"system": "MCF-7 induced solid tumor model", "experiment": "In vivo anti-tumor therapy", "design": "species or system NU/NU nude mice", "experimental": "The anti-tumor efficacy of DOX@NKsomes was determined along with free DOX and unloaded NKsomes (aka “empty” NKsomes) using MCF-7 induced solid tumor model in immunodeficient NU/NU nude mice (n=3). In brief, 1×10^6 MCF-7 cells in PBS was injected subcutaneously into the hind rear flank region of the mice and the tumor growth is monitored periodically. When the tumor size reached 4-5 mm, animals received 4 cycles of drug treatment at Day 1, 4, 7 and 10 [DOX@NKsomes and free DOX (equivalent DOX concentration of 5 mg/kg)] up to 3 weeks. Control groups were also maintained without any treatment and bare NKsomes (10 mg/kg). During the study, body weight and tumor volume of the animal groups were monitored periodically to assess the therapeutic effects. The tumor volume (V) was determined using V=L×W2/2, where L=length of the tumor and W=width of the tumor. At the end of the study, animals were euthanized, collected tumors and measured its size and weight. Further, the tumor tissues were embedded in OCT, cryosectioned and subjected to immunofluorescence for the qualitative accumulation of NKsomes in tumor tissues by assessing the NKM protein marker (CD 56)."}, "THP-1 cells [5]": {"system": "THP-1 cells", "experiment": "In vitro cytokine release assay of BNc", "type": "cell-based, human", "settings": "THP-1, 100 μg/mL (LPS 3 μg/mL), 24 h", "experimental": "The immunogenicity of the prepared BNc along with the bare PLGA NP were tested for its immunoregulatory potential using standard cytokine release assay. In brief, 8×10^5 THP-1 cells were seeded in a 12-well plate and treated with bare PLGA NP (100 μg/mL), NKM (100 μg/mL), Gd-lipid (100 μg/mL) and BNc (100 μg/mL) at 37° C. for 24 h. After 24 h incubation, cell culture supernatants were collected, centrifuged, removed cell debris and stored at −20° C. as small aliquots. For cytokine assay, samples were thawed and analyzed for pro-inflammatory cytokines, IL-1β (LOD: 1.7 pg/ml), IL-6 (LOD: 1.5 pg/mL), and TNF-α (LOD: 1 pg/mL) using Magnetic Human Cytokine Multiplex Assays Kit (R&D Systems, Inc. Minneapolis, MN) in Luminex MagPix® instrument (Millipore Inc.) as per the manufacturer recommendations. For positive control, cells were dosed with 3 μg/mL of lipopolysaccharide (LPS) for 24 h."}}}
{"compound": "COc1cccc2c1C(=O)c1c(O)c3c(c(O)c1C2=O)C[C@@](O)(C(=O)CO)C[C@@H]3O[C@H]1C[C@H](N)[C@H](O)[C@H](C)O1", "note": "[Free DOX, doxorubicin]", "values": [{"measurement": "immunogenicity (pro-inflammatory cytokines)", "setting": "THP-1 cells [1]", "value": "little elevation of IL-10 and TNF-α levels"}, {"measurement": "G1 fraction", "setting": "NHost", "value": 53.3, "unit": "%"}, {"measurement": "G2 fraction", "setting": "NHost", "value": 23.6, "unit": "%"}, {"measurement": "G1 fraction", "setting": "MCF-7 cells [2]", "value": 53, "unit": "%"}, {"measurement": "G2 fraction", "setting": "MCF-7 cells [2]", "value": 25, "unit": "%"}, {"measurement": "in vitro cytotoxicity (MTT)", "setting": "NHost cells", "value": "superior toxicity"}, {"measurement": "in vitro cytotoxicity (MTT)", "setting": "MCF-7 cells [3]", "value": "Dose-dependent cytotoxicity"}, {"measurement": "tumor inhibition rate (IR %)", "setting": "[4]; DOX 5 mg/kg or bare NKsomes 10 mg/kg, Day 1, 4, 7, 10, from tumor weight", "value": 63.69, "unit": "%"}, {"measurement": "average tumor weight", "setting": "[4]; end of study", "value": "0.3 ± 0.04", "unit": "g"}, {"measurement": "tumor volume change", "setting": "[4]; end of treatment period", "value": "significant reduction in tumor volume"}]}
{"compound": "lipopolysaccharide [LPS]", "values": [{"measurement": "immunogenicity (IL-1β, IL-6, TNF-α release)", "setting": "THP-1 cells [5]", "value": "elevated levels of IL-1β, IL-6, and TNF-α"}]}
